Drawing on PubChem BioAssay (NCI), this text covers TGI for eight molecules.

SMILES strings stand for the structures.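 Cells were grown in 96-well plates and exposed to each compound for 48 hours at five concentrations; endpoints were interpolated linearly between bracketing concentrations, or set to the highest concentration if not reached. TGI: total growth inhibition.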

Test systems include ACHN renal; SK-MEL-5 melanoma; SF-268 CNS; MCF7 breast; NCI/ADR-RES ovarian; SF-539 CNS; A549 NSCLC; M14 melanoma; OVCAR-8 ovarian; HCT-116 colon; UACC-257 melanoma; MDA-MB-231 breast; NCI-H460 lung; OVCAR-4 ovarian; T-47D breast; U251 CNS; K-562 leukemia; HL-60(TB) leukemia; SR leukemia.
Test in all cases: inhibition of tumour cell growth, NCI panel, 48 h

With `C1=NN2C(c3ccccc3)=NOC2C2C(c3ccccc3)=NOC12` (stereo unspecified), the TGI in the experiment with ACHN renal, in the experiment with SK-MEL-5 melanoma, in the experiment with SF-268 CNS, in the experiment with MCF7 breast, in the experiment with NCI/ADR-RES ovarian and with SF-539 CNS was more than 100 µM each time. Besides, the TGI in the experiment with A549 NSCLC, in the experiment with M14 melanoma, in the experiment with OVCAR-8 ovarian, with HCT-116 colon, in the experiment on UACC-257 melanoma and in the experiment with MDA-MB-231 breast was more than 100 µM throughout. The same molecule showed a TGI in the experiment on NCI-H460 lung of more than 100 µM.
For the molecule `CC1=CC2(C)C=C[C@@H]1C(=O)[C@@]1(C)CC[C@@](O)(C(C)C)[C@H]1CC2`, the TGI in the experiment on ACHN renal was found to be 45.9 µM; in the experiment on OVCAR-4 ovarian, 38.2 µM; in the experiment on SK-MEL-5 melanoma, 34 µM; in the experiment on T-47D breast, 88 µM; in the experiment on SF-268 CNS, 57.1 µM; in the experiment with MCF7 breast, 76 µM. In addition, the TGI with NCI/ADR-RES ovarian was 40 µM; in the experiment on SF-539 CNS, 35 µM; in the experiment with A549 NSCLC, more than 100 µM; in the experiment with M14 melanoma, 35.8 µM; in the experiment with OVCAR-8 ovarian, 32.6 µM; in the experiment on HCT-116 colon, 32.2 µM. Moreover, the TGI with U251 CNS was 33.1 µM; in the experiment with UACC-257 melanoma, 34.1 µM; with MDA-MB-231 breast, 35.5 µM; in the experiment with K-562 leukemia, 52.1 µM; in the experiment on NCI-H460 lung, 32.5 µM.
Turning to `COc1ccccc1N1CCN(S(=O)(=O)c2ccc(Cl)cc2)C1=N`, the TGI in the experiment with ACHN renal, with OVCAR-4 ovarian, in the experiment on SK-MEL-5 melanoma, in the experiment with T-47D breast, in the experiment on SF-268 CNS and in the experiment on MCF7 breast was more than 100 µM each time. Moreover, the TGI in the experiment on NCI/ADR-RES ovarian, in the experiment with SF-539 CNS, in the experiment with A549 NSCLC, in the experiment with M14 melanoma, with OVCAR-8 ovarian and in the experiment with HCT-116 colon was more than 100 µM in each case. The TGI in the experiment on U251 CNS, with UACC-257 melanoma, in the experiment on MDA-MB-231 breast, in the experiment with K-562 leukemia and in the experiment on NCI-H460 lung was more than 100 µM in each case.
Turning to `N#Cc1c(-c2ccccc2)cn(C(=O)c2ccccc2)c1N`, the TGI in the experiment on ACHN renal, in the experiment with HL-60(TB) leukemia, in the experiment with OVCAR-4 ovarian, with SK-MEL-5 melanoma, in the experiment with SF-268 CNS and with MCF7 breast was more than 100 µM in each case. Also, the TGI in the experiment on NCI/ADR-RES ovarian, with A549 NSCLC, with M14 melanoma, with OVCAR-8 ovarian, in the experiment with HCT-116 colon and with U251 CNS was more than 100 µM each time. The TGI in the experiment with SR leukemia, in the experiment on MDA-MB-231 breast and in the experiment on K-562 leukemia was more than 100 µM each time.
Consider `N#Cc1c(C#N)c(SSc2c(C#N)c(C#N)c(N)n2-c2cccc3ccccc23)n(-c2cccc3ccccc23)c1N`, for which the TGI is 13.1 µM with ACHN renal; 41.9 µM with OVCAR-4 ovarian; 41.8 µM in the experiment on SK-MEL-5 melanoma; 5.47 µM in the experiment on T-47D breast; 33.2 µM with SF-268 CNS; more than 100 µM in the experiment with MCF7 breast. Moreover, the TGI with NCI/ADR-RES ovarian was more than 76.8 µM; in the experiment on SF-539 CNS it was 35.7 µM; in the experiment on A549 NSCLC, 43.7 µM; in the experiment with M14 melanoma, 8.4 µM; in the experiment on OVCAR-8 ovarian, more than 25.3 µM; in the experiment with HCT-116 colon it was 14.1 µM. The TGI is 40 µM in the experiment on U251 CNS; 37.6 µM in the experiment with UACC-257 melanoma; 40.8 µM with MDA-MB-231 breast; more than 100 µM with K-562 leukemia; more than 100 µM in the experiment on NCI-H460 lung.
Consider `COc1ccc(/C=C2/SC(=Nc3ccccc3)N(NC(=O)Cc3ccccc3)C2=O)cc1`, for which the TGI in the experiment on ACHN renal, in the experiment with HL-60(TB) leukemia, in the experiment on OVCAR-4 ovarian, in the experiment on SK-MEL-5 melanoma, in the experiment with T-47D breast and with SF-268 CNS was more than 100 µM throughout. Besides, the TGI with MCF7 breast, with NCI/ADR-RES ovarian, in the experiment with SF-539 CNS, in the experiment on A549 NSCLC, with M14 melanoma and in the experiment on OVCAR-8 ovarian was more than 100 µM throughout. In addition, the TGI in the experiment with HCT-116 colon, in the experiment on U251 CNS, with UACC-257 melanoma, in the experiment on MDA-MB-231 breast, in the experiment on K-562 leukemia and in the experiment on NCI-H460 lung was more than 100 µM each time.
On to `Cc1n[nH]c(=O)n1/N=C/c1ccco1`, for which the TGI in the experiment on ACHN renal, with OVCAR-4 ovarian, in the experiment with T-47D breast, in the experiment with SF-268 CNS, with MCF7 breast and in the experiment on NCI/ADR-RES ovarian was more than 100 µM throughout. Further, the TGI in the experiment with SF-539 CNS, in the experiment on A549 NSCLC, in the experiment on M14 melanoma, with OVCAR-8 ovarian, in the experiment with HCT-116 colon and with U251 CNS was more than 100 µM each time. In addition, the TGI in the experiment on UACC-257 melanoma, with MDA-MB-231 breast, in the experiment with K-562 leukemia and in the experiment on NCI-H460 lung was more than 100 µM in each case.
`C1CSCCSCCSCCSCCS1`: the TGI in the experiment with ACHN renal, in the experiment on HL-60(TB) leukemia, in the experiment on OVCAR-4 ovarian, in the experiment on SK-MEL-5 melanoma, with T-47D breast and in the experiment on SF-268 CNS was more than 100 µM throughout. The TGI in the experiment on MCF7 breast, in the experiment on NCI/ADR-RES ovarian, with SF-539 CNS, with A549 NSCLC, in the experiment with M14 melanoma and in the experiment on OVCAR-8 ovarian was more than 100 µM throughout. Also, the TGI in the experiment with HCT-116 colon, with U251 CNS, in the experiment on UACC-257 melanoma, with MDA-MB-231 breast, in the experiment on K-562 leukemia and in the experiment on NCI-H460 lung was more than 100 µM each time.
